From patent publication US4605744A, “Imidazole derivatives” (Hoffmann-La Roche Inc., priority 1985, dated 1986)
Structures can show the parent of a compound that is named as a salt. Where two headings read alike, the source gives them in different places.

Experiments:
Assay in all cases: In vitro antibacterial activity (MIC)
Assay type in all cases: cell-based
K. pneumoniae 503-964 = system: K. pneumoniae 503-964
Method: (§1) Drug dilutions are prepared in Mueller-Hinton broth ranging from 128 to 0.008 μg/ml. The diluted agents are dispensed in 100 μl amounts into the wells of a 96-well tray and used immediately or frozen at -10° to -70° C. until needed. Using an automated inoculator, 1.5 μl of a 10^-2 dilution of an overnight culture is added to each well of the tray. The tops of the trays are then sealed using transparent tape and incubated overnight at 37° C. The trays are examined with the aid of a viewer. The lowest concentration at which no growth is observed is considered to be the minimum inhibitory concentration (MIC).

E. coli 4 = settings: Escherichia coli, 4, E. coli 4; read-out: MIC
Method: as §1

S. pneumoniae 6302 = settings: Streptococcus pneumoniae, 6302, S. pneumoniae 6302; read-out: MIC
Method: as §1

S. marcescens 5805 = system: S. marcescens 5805
Method: as §1

S. pneumoniae SC = settings: Streptococcus pneumoniae, read-out: MIC
Method: as §1

E. coli 387-1 = settings: Escherichia coli, 3871, E. coli 387-1; read-out: MIC
Method: as §1

S. marcescens S3 = settings: Serratia marcescens; S. marcescens S3; read-out: MIC
Method: as §1

K. pneumoniae 4964 = settings: Klebsiella pneumoniae, 4964
Method: as §1

P. aeruginosa 8710 = settings: Pseudomonas aeruginosa; P. aeruginosa 8710; read-out: MIC
Method: as §1

S. pneumoniae 6301 = system: S. pneumoniae 6301
Method: as §1

E. cloacae 214 = settings: Enterobacter cloacae, 214, E. cloacae 214; read-out: MIC
Method: as §1

E. cloacae P99 = settings: Enterobacter cloacae, P99, E. cloacae P99
Method: as §1

K. pneumoniae 35 = settings: Klebsiella pneumoniae; K. pneumoniae 35; read-out: MIC
Method: as §1

E. coli 503-455 = system: E. coli 503-455
Method: as §1

P. mirabilis 190 = settings: Proteus mirabilis, 190, P. mirabilis 190; read-out: MIC
Method: as §1

S. marcescens S2 = settings: Serratia marcescens; S. marcescens S2; read-out: MIC
Method: as §1

S. schottmuelleri = settings: read-out: MIC
Method: as §1

E. cloacae 9570A = settings: Enterobacter cloacae
Method: as §1

K. pneumoniae HE7 = settings: Klebsiella pneumoniae; K. pneumoniae HE7; read-out: MIC
Method: as §1

S. typhi P58A = settings: Salmonella enterica, TYPHI
Method: as §1

P. mirabilis 2 = system: P. mirabilis 2
Method: as §1

S. pyogenes 4 = settings: Streptococcus pyogenes, 4, S. pyogenes 4; read-out: MIC
Method: as §1

P. aeruginosa 503-820 = settings: Pseudomonas aeruginosa, 503820; P. aeruginosa 503-820; read-out: MIC
Method: as §1

E. cloacae 9295 = settings: Enterobacter cloacae, 9295, E. cloacae 9295; read-out: MIC
Method: as §1

E. aerogenes 83 = system: E. aerogenes 83
Method: as §1

E. cloacae 5699 = settings: Enterobacter cloacae, 5699, E. cloacae 5699; read-out: MIC
Method: as §1

K. pneumoniae 8357 = system: K. pneumoniae 8357
Method: as §1

E. coli R-563 = settings: Escherichia coli, R563, E. coli R-563; read-out: MIC
Method: as §1

E. aerogenes 8 = settings: Klebsiella aerogenes; E. aerogenes 8; read-out: MIC
Method: as §1

K. pneumoniae 5096 = settings: Klebsiella pneumoniae; K. pneumoniae 5096; read-out: MIC
Method: as §1

P. aeruginosa 8780 = settings: Pseudomonas aeruginosa; P. aeruginosa 8780; read-out: MIC
Method: as §1

E. aerogenes 503-478 = settings: Klebsiella aerogenes, 503478, E. aerogenes 503-478; read-out: MIC
Method: as §1

S. marcescens SM = settings: Serratia marcescens, read-out: MIC
Method: as §1

K. pneumoniae 503-994 = settings: Klebsiella pneumoniae, 503994, K. pneumoniae 503-994; read-out: MIC
Method: as §1

E. coli 5152 = system: E. coli 5152
Method: as §1

P. vulgaris ATCC 6380 = settings: Proteus vulgaris, ATCC6380, P. vulgaris ATCC 6380; read-out: MIC
Method: as §1

E. cloacae 6951 = system: E. cloacae 6951
Method: as §1

E. coli 48 = settings: Escherichia coli, 48, E. coli 48; read-out: MIC
Method: as §1

S. marcescens S4 = settings: Serratia marcescens, S4, S. marcescens S4; read-out: MIC
Method: as §1

P. rettgeri ATCC 9250 = settings: Providencia rettgeri, ATCC9250, P. rettgeri ATCC 9250; read-out: MIC
Method: as §1

K. pneumoniae A = settings: Klebsiella pneumoniae, K. pneumoniae A; read-out: MIC
Method: as §1

P. aeruginosa 6148B = settings: Pseudomonas aeruginosa, read-out: MIC
Method: as §1

C. freundii 8ASM = settings: Citrobacter freundii, 8ASM, C. freundii 8ASM; read-out: MIC
Method: as §1

P. aeruginosa 503-56 = settings: Pseudomonas aeruginosa, 50356, P. aeruginosa 503-56
Method: as §1

[1] = Serratia marcescens, 5805, S. marcescens 5805, read-out: MIC
[2] = Streptococcus pneumoniae, 6301, S. pneumoniae 6301, read-out: MIC
[3] = Enterobacter cloacae, 6951, E. cloacae 6951, read-out: MIC
[4] = Klebsiella pneumoniae, 503964, K. pneumoniae 503-964, read-out: MIC
[5] = Proteus mirabilis, 2, P. mirabilis 2, read-out: MIC
[6] = Klebsiella aerogenes, 83, E. aerogenes 83, read-out: MIC
[7] = Klebsiella pneumoniae, 8357, K. pneumoniae 8357, read-out: MIC

Measured: MIC

Cc1nccn1CCCC1CCN(C=N[C@@H]2C(=O)N3[C@@H]2SC(C)(C)[C@@H]3C(=O)O)CC1 [F, [2S-(2alpha,5alpha,6beta)]-3,3-dimethyl-6-[[[4-[3-(2-methyl-1H-imidazol-1-yl)propyl]-1-piperidinyl]methylene]amino]-7-oxo-4-thia-1-azabicyclo[3.2.0]heptane-2-carboxylic acid 1.15 molar hydrochloride 1.75 molar hydrate]
0.5 µg/mL: S. marcescens 5805; [1] | P. mirabilis 2; Proteus mirabilis, 2 | S. pyogenes 4
32 µg/mL: K. pneumoniae 4964 | E. aerogenes 8
0.25 µg/mL: S. marcescens S3 | P. mirabilis 190 | S. marcescens S2 | E. cloacae 9570A; 9570A | E. cloacae 9295 | E. cloacae 5699 | P. vulgaris ATCC 6380 | P. rettgeri ATCC 9250
4 µg/mL: K. pneumoniae 503-964; Klebsiella pneumoniae, 503964, K. pneumoniae 503-964 | E. aerogenes 503-478
0.062 µg/mL: E. coli 4 | S. schottmuelleri | S. typhi P58A | E. coli R-563 | E. coli 48 | C. freundii 8ASM
0.125 µg/mL: E. coli 387-1 | E. cloacae 214 | E. cloacae P99 | K. pneumoniae 35 | S. marcescens SM
> 128 µg/mL: P. aeruginosa 8710 | K. pneumoniae HE7 | P. aeruginosa 503-820 | P. aeruginosa 6148B | P. aeruginosa 503-56; read-out: MIC
> 12 µg/mL: P. aeruginosa 8780
64 µg/mL: K. pneumoniae 5096
8 µg/mL: E. coli 5152; Escherichia coli, 5152, E. coli 5152, read-out: MIC | E. cloacae 6951; [3]
2 µg/mL: S. pneumoniae 6302 | E. coli 503-455; Escherichia coli, 503455, E. coli 503-455, read-out: MIC | K. pneumoniae 503-994 | S. marcescens S4
1 µg/mL: S. pneumoniae SC | S. pneumoniae 6301; [2] | K. pneumoniae 8357; Klebsiella pneumoniae, 8357
16 µg/mL: E. aerogenes 83; Klebsiella aerogenes, 83
0.031 µg/mL: K. pneumoniae A

CC1(C)S[C@@H]2[C@H](N=CN3CCC(CCCn4ccnc4N)CC3)C(=O)N2[C@H]1C(=O)O [I, [2S-(2alpha,5alpha,6beta)]-6-[[[4-[3-(2-amino-1H-imidazol-1-yl)propyl]piperidinyl]methylene]amino]-3,3-dimethyl-7-oxo-4-thia-1-azabicyclo[3.2.0]hpetane-2-carboxylic acid hydrochloride]
0.125 µg/mL: P. mirabilis 190 | E. cloacae 9570A; read-out: MIC | E. cloacae 9295
8 µg/mL: E. cloacae 6951; Enterobacter cloacae, 6951
< 0.008 µg/mL: K. pneumoniae A
> 128 µg/mL: K. pneumoniae HE7 | K. pneumoniae 5096 | P. aeruginosa 8780
0.062 µg/mL: K. pneumoniae 503-964; [4] | E. coli 387-1 | S. marcescens S3 | E. cloacae 214 | S. marcescens S2 | S. typhi P58A | E. cloacae 5699 | K. pneumoniae 8357; [7] | E. coli R-563 | S. marcescens SM | K. pneumoniae 503-994 | P. vulgaris ATCC 6380
4 µg/mL: S. pneumoniae 6302 | S. pneumoniae SC | E. coli 5152; Escherichia coli, 5152
128 µg/mL: P. aeruginosa 8710 | P. aeruginosa 503-820 | E. aerogenes 8 | P. aeruginosa 6148B | P. aeruginosa 503-56; read-out: MIC
1 µg/mL: E. coli 503-455; Escherichia coli, 503455 | S. pyogenes 4 | E. aerogenes 83; [6] | E. aerogenes 503-478
2 µg/mL: S. pneumoniae 6301; Streptococcus pneumoniae, 6301
0.031 µg/mL: E. coli 4 | E. cloacae P99 | S. schottmuelleri | E. coli 48 | C. freundii 8ASM
0.25 µg/mL: S. marcescens 5805; [1] | K. pneumoniae 4964 | K. pneumoniae 35 | P. mirabilis 2; [5] | S. marcescens S4 | P. rettgeri ATCC 9250

CC1(C)S[C@@H]2[C@H](N=CN3CCC(CCC4=NCCN4)CC3)C(=O)N2[C@H]1C(=O)O [N, [2S-(2alpha,5alpha,6beta)]-6-[[[4-[4,5-dihydro-1H-imidazol-2-yl)ethyl]-1-piperidinyl]methylene]amino]-3,3-dimethyl-7-oxo-4-thia-1-azabicyclo[3.2.0]heptane-2-carboxylic acid hydrochloride]
0.125 µg/mL: K. pneumoniae 35 | P. mirabilis 190 | P. mirabilis 2; [5] | E. cloacae 9295 | K. pneumoniae 8357; [7] | P. rettgeri ATCC 9250
2 µg/mL: S. pneumoniae 6302
0.25 µg/mL: S. marcescens 5805; Serratia marcescens, 5805 | S. marcescens S4
4 µg/mL: E. aerogenes 503-478
0.031 µg/mL: S. schottmuelleri | S. typhi P58A | E. coli R-563 | P. vulgaris ATCC 6380 | E. coli 48 | C. freundii 8ASM
128 µg/mL: P. aeruginosa 8780
0.062 µg/mL: K. pneumoniae 503-964; [4] | S. marcescens S3 | E. cloacae 214 | S. marcescens S2 | E. cloacae 9570A; read-out: MIC | E. cloacae 5699 | S. marcescens SM | K. pneumoniae 503-994
0.016 µg/mL: E. coli 4 | E. coli 387-1 | E. cloacae P99 | K. pneumoniae A
1 µg/mL: S. pneumoniae SC | S. pneumoniae 6301; [2] | E. coli 503-455; Escherichia coli, 503455 | S. pyogenes 4
8 µg/mL: E. aerogenes 83; [6] | E. coli 5152; Escherichia coli, 5152 | E. cloacae 6951; [3]
32 µg/mL: K. pneumoniae 4964 | P. aeruginosa 8710 | E. aerogenes 8 | P. aeruginosa 6148B
> 128 µg/mL: K. pneumoniae HE7 | K. pneumoniae 5096
16 µg/mL: P. aeruginosa 503-820 | P. aeruginosa 503-56
